Reference: US5185320A, “O^56 -alkyl derivatives of aglycone and pseudo aglycones of teicoplanin” (Gruppo Lepetit S.p.A., priority 1989, dated 1993)

How the values were obtained:
Type in all cases: cell-based
Settings in all cases: inoculum about 10^4 CFU/ml, 18-24 h at 37° C.
Staph. aureus Tour L 165 = assay: MIC, standard dilution test, Staph. aureus Tour L 165
Experimental: (§1) ISOSENSITEST broth (Oxoid) and TOLLD-HEWITT broth (Difco) are used for growing staphylococci and streptococci, respectively. Broth cultures are diluted so that the final inoculum is about 10^4 colony forming units/ml (CFU/ml).

[1] = system: Staph. haemolyticus L 602; assay: MIC, standard dilution test, Staph. haemolyticus L 602
Experimental: as §1

[2] = system: Staph. epidermidis ATCC 12228; assay: MIC, standard dilution test, Staph. epidermidis ATCC 12228
Experimental: as §1

Strep. pyogenes C 203 = assay: MIC, standard dilution test, Strep. pyogenes C 203
Experimental: as §1

Strep. pneumoniae UC41 = assay: MIC, standard dilution test, Strep. pneumoniae UC41
Experimental: as §1

[3] = system: Strep. faecalis ATCC 7080; assay: MIC, standard dilution test, Strep. faecalis ATCC 7080
Experimental: as §1

Strep. mitis L 796 = assay: MIC, standard dilution test, Strep. mitis L 796
Experimental: as §1

[4] = system: Neisseria gonorrhoeae ISM68/126; assay: MIC, standard dilution test, Neisseria gonorrhoeae ISM68/126
Experimental: as §1

[5] = system: Haemophilus influenzae ATCC 19418; assay: MIC, standard dilution test, Haemophilus influenzae ATCC 19418
Experimental: as §1

[6] = system: Escherichia coli SKF 12140; assay: MIC, standard dilution test, Escherichia coli SKF 12140
Experimental: as §1

[7] = system: Proteus vulgaris ATCC 881; assay: MIC, standard dilution test, Proteus vulgaris ATCC 881
Experimental: as §1

[8] = system: Pseudomonas aeruginosa ATCC 10145; assay: MIC, standard dilution test, Pseudomonas aeruginosa ATCC 10145
Experimental: as §1

SMILES | Minimal inhibitory concentration (MIC) (Staph. aureus Tour L 165) | Minimal inhibitory concentration (MIC) [2] | Minimal inhibitory concentration (MIC) (Strep. pyogenes C 203) | Minimal inhibitory concentration (MIC) (Strep. pneumoniae UC41) | Minimal inhibitory concentration (MIC) [3] | Minimal inhibitory concentration (MIC) (Strep. mitis L 796) | Minimal inhibitory concentration (MIC) [4] | Minimal inhibitory concentration (MIC) [5] | Minimal inhibitory concentration (MIC) [6] | Minimal inhibitory concentration (MIC) [7] | Minimal inhibitory concentration (MIC) [8] | Minimal inhibitory concentration (MIC) [1]
COC(=O)C1NC(=O)C2NC(=O)C(NC(=O)C3NC(=O)C4NC(=O)C(Cc5ccc(c(Cl)c5)Oc5cc3cc(c5OCCCCN3C(=O)c5ccccc5C3=O)Oc3ccc(cc3Cl)C2O)NC(=O)C(N)c2ccc(O)c(c2)Oc2cc(O)cc4c2)c2ccc(O)c(c2)-c2c(O)cc(O)cc21.Cl (stereo not shown) [Compound 2, O^56-[4(N-phthalimido)butyl]deglucoteicoplanin methyl ester] | 2 | 2 | 0.125 | 0.125 | 4 | 0.125 | > 128 | > 128 | > 128 | > 128 | > 128 | 4
COC(=O)C1NC(=O)C2NC(=O)C(NC(=O)C3NC(=O)C4NC(=O)C(Cc5ccc(c(Cl)c5)Oc5cc3cc(c5OC(CCO)C(=O)O)Oc3ccc(cc3Cl)C2O)NC(=O)C(N)c2ccc(O)c(c2)Oc2cc(O)cc4c2)c2ccc(O)c(c2)-c2c(O)cc(O)cc21.Cl (stereo not shown) [Compound 3, O^56-(1-carboxy-3-hydroxypropyl)deglucoteicoplanin methyl ester hydrochloride] | 0.5 | 0.25 | 0.125 | 0.125 | 0.125 | 0.25 | 64 | > 128 | > 128 | > 128 | > 128 | 2
COC(=O)CNC(=O)CNCCOc1c2cc3cc1Oc1ccc(cc1Cl)C(O)C1NC(=O)C(NC(=O)C3NC(=O)C3NC(=O)C(Cc4ccc(c(Cl)c4)O2)NC(=O)C(N)c2ccc(O)c(c2)Oc2cc(O)cc3c2)c2ccc(O)c(c2)-c2c(O)cc(O)cc2C(C(=O)OCCBr)NC1=O (stereo not shown) [Compound 18, O^56-[2-[2-[(2-methoxy-2-oxoethyl)amino]-2-oxoethylamino]ethyl]deglucoteicoplanin 2-bromoethyl ester] | 0.13 | – | 0.125 | – | – | – | – | – | > 128 | > 128 | > 128 | 2
NC1C(=O)NC2Cc3ccc(c(Cl)c3)Oc3cc4cc(c3OCCO)Oc3ccc(cc3Cl)C(O)C3NC(=O)C(NC(=O)C4NC(=O)C(NC2=O)c2cc(O)cc(c2)Oc2cc1ccc2O)c1ccc(O)c(c1)-c1c(O)cc(O)cc1C(C(=O)OCCO)NC3=O (stereo not shown) [Compound 22, O^56-(2-hydroxyethyl)deglucoteicoplanin 2-hydroxyethyl ester] | 0.06 | – | 0.125 | – | – | – | – | – | 32 | – | – | 0.5

More lines, main results first:

Minimal inhibitory concentration (MIC) (Staph. aureus Tour L 165) | Minimal inhibitory concentration (MIC) [2] | Minimal inhibitory concentration (MIC) (Strep. pyogenes C 203) | Minimal inhibitory concentration (MIC) (Strep. pneumoniae UC41) | Minimal inhibitory concentration (MIC) [3] | Minimal inhibitory concentration (MIC) (Strep. mitis L 796) | Minimal inhibitory concentration (MIC) [4] | Minimal inhibitory concentration (MIC) [5] | Minimal inhibitory concentration (MIC) [6] | Minimal inhibitory concentration (MIC) [7] | Minimal inhibitory concentration (MIC) [8] | SMILES | Minimal inhibitory concentration (MIC) [1]
0.125 | 0.063 | 0.063 | 0.125 | 0.5 | 0.25 | 64 | 64 | 32 | 64 | > 128 | COC(=O)C1NC(=O)C2NC(=O)C(NC(=O)C3NC(=O)C4NC(=O)C(Cc5ccc(c(Cl)c5)Oc5cc3cc(c5OCC3CO3)Oc3ccc(cc3Cl)C2O)NC(=O)C(N)c2ccc(O)c(c2)Oc2cc(O)cc4c2)c2ccc(O)c(c2)-c2c(O)cc(O)cc21.Cl (stereo not shown) [Compound 1, O^56-(2,3-epoxypropyl)deglucoteicoplanin methyl ester] | 1
0.125 | 0.125 | 0.063 | 0.125 | 0.125 | 0.125 | – | – | 8 | 32 | 32 | COC(=O)C1NC(=O)C2NC(=O)C(NC(=O)C3NC(=O)C4NC(=O)C(Cc5ccc(c(Cl)c5)Oc5cc3cc(c5OCCCCN)Oc3ccc(cc3Cl)C2O)NC(=O)C(N)c2ccc(O)c(c2)Oc2cc(O)cc4c2)c2ccc(O)c(c2)-c2c(O)cc(O)cc21 (stereo not shown) [Compound 5, O^56-(4-aminobutyl)deglucoteicoplanin methyl ester] | 0.5
0.25 | 0.25 | 0.032 | 0.25 | 0.5 | 0.125 | 128 | – | 16 | > 128 | > 128 | COC(=O)C1NC(=O)C2NC(=O)C(NC(=O)C3NC(=O)C4NC(=O)C(Cc5ccc(c(Cl)c5)Oc5cc3cc(c5OCCCCN(CCN(C)C)CCN(C)C)Oc3ccc(cc3Cl)C2O)NC(=O)C(N)c2ccc(O)c(c2)Oc2cc(O)cc4c2)c2ccc(O)c(c2)-c2c(O)cc(O)cc21 (stereo not shown) [Compound 6, O^56-[4-[bis[2-(dimethylamino)ethyl]amino]butyl]deglucoteicoplanin methyl ester] | 0.5
